Data from US12453720B2, “Application of norharmane in improving antibacterial activity of antibiotics” (ZHEJIANG UNIVERSITY OF TECHNOLOGY, priority 2020, dated 2025).

Tested on: drug-resistant Pseudomonas aeruginosa GDMCC No: 61027 (strain C218)
Experiment: Checkerboard microdilution of norharmane combined with an antibiotic (OD600 growth, MIC at 80% inhibition, FICI and ΔE evaluation)
Type: cell-based
Protocol: Preparation of bacterial solution: Pseudomonas aeruginosa GDMCC No: 61027 stored at −80° C., was thawed at room temperature, streaked on LB agar medium and cultured at 37° C. for 24 h, and then a single well-developed colony was inoculated again and cultured for 24 h at 37° C. to ensure that the strain was in the growth phase. A single colony was selected, inoculated into LB medium, and cultured at 37° C. and 200 rpm. for 16 h. The resulting solution was diluted 10000 times with fresh LB medium to obtain Pseudomonas aeruginosa GDMCC No:61027 bacterial solution whose concentration calculated by of the amount of bacterial viable count was […].
According to the checkerboard microdilution method, the norharmane mother liquor was diluted 4 times with methanol, and the concentration ranges of norharmane and an antibiotic (polymyxin B, imipenem-cilastatin sodium or levofloxacin) in combination were screened.
Methanol was used as a diluent, the preparation concentrations of norharmane were 160, 80, 40, 20, 10, 5 and 2.5 μg/mL, the preparation concentrations of polymyxin B were 31.25, 15.6, 7.8, 3.9, 1.95, 0.98 and 0.49 μg/mL; the preparation concentrations of imipenem-cilastatin sodium were 8000, 4000, 2000, 1000, 500, 250 and 125 μg/mL; the preparation concentrations of levofloxacin were 250, 125, 62.5, 31.25, 15.6, 7.8 and 3.9 μg/mL; and the preparation concentrations of ofloxacin were 2000, 1000, 500, 250, 125, 62.5, and 31.25 μg/mL.
According to FIG. 7, each antibiotic is added into a 96-well plate, and 50 μL of the antibiotic solutions were drawn and added into wells in columns 2˜8 of the %-well plate in the order of concentration from low to high, while the same amount of methanol instead of antibiotic was added into column 1. 50 μL of the norharmane solutions were drawn and added into wells in rows G˜A of the 96-well plate in the order of concentration from low to high, while no norharmane was added into wells in row H. After the 96-well plate was left to stand to evaporate methanol completely, 200 μL of the Pseudomonas aeruginosa GDMCC No: 61027 bacterial solution (2.6×10^9 CFU) were added into the wells in columns 1˜8. Therefore, the final concentrations of norharmane were 40, 20, 10, 5, 2.5, 1.25, 0.63 and 0 μg/mL; the final concentrations of norharmane were polymyxin B is 7.8, 3.9, 1.95, 0.98, 0.49, 0.24, 0.12 and 0 μg/mL; the final concentrations of imipenem-cilastatin sodium were 2000, 1000, 500, 250, 125, 62.5, 31.25 and 0 μg/mL; the final concentrations of levofloxacin were 62.5, 31.25, 15.6, 7.8, 3.9, 1.95, 0.98 and 0 μg/mL; and the final concentrations of ofloxacin were 500, 250, 125, 62.5, 31.25, 15.6, 7.8 and 0 μg/mL. 200 μL of fresh LB medium were added to column 9. Wherein, well H1 is a growth control well, containing only bacterial solution and no drugs, and column 9 is a blank control containing only LB liquid medium. The prepared 96-well plate was placed in a constant temperature incubator at 37° C. for 24 h, and then OD600 was measured with a microplate reader and the results were recorded. All experiments were repeated three times.
OD value of each well at 600 nm was measured with a microplate reader. And the percentage of the bacterial growth inhibition of each well was determined as
Loewe additivity (LA) theory assumes that the drugs applied in combination have no interaction, i.e., null reference model. FICI method is the non-parametric method of LA theory, which can be expressed as: ΣFIC=FICA+FICB=CA/MICA+CB/MICB
wherein MICA and MICB denote minimum inhibitory concentrations of two drugs A and B when used alone, respectively, and CA and CB denote concentration of drugs A and B in combination respectively while their combined effect is equal to the sum of their individual separate effects. ΣFIC value of each well with percentage of the bacterial growth inhibition >80% were calculated, and in the ΣFIC values obtained, if ΣFICmax>4, FICI=ΣFICmax; if ΣFICmax<4, FICI=ΣFICmin. […]

[1] = end point 80% growth inhibition

`c1ccc2c(c1)[nH]c1cnccc12` [Norharmane, norharmane] gave a Growth percentage (norharmane 0.63 μg/ml alone, imipenem-cilastatin sodium 0 (Table 2)) of 94%, a Growth percentage (norharmane 0.63 μg/ml alone, levofloxacin 0 (Table 3)) of 98% and a Growth percentage (norharmane 0.63 μg/ml alone, ofloxacin 0 (Table 4)) of 99%. For the same compound, the Growth percentage (norharmane 0.63 μg/ml alone, polymyxin B 0 (Table 1)) was 99%, the Growth percentage (norharmane 1.25 μg/ml alone, imipenem-cilastatin sodium 0 (Table 2)) was 92% and the Growth percentage (norharmane 1.25 μg/ml alone, levofloxacin 0 (Table 3)) was 94%. It also gave a Growth percentage (norharmane 1.25 μg/ml alone, ofloxacin 0 (Table 4)) of 98%, a Growth percentage (norharmane 1.25 μg/ml alone, polymyxin B 0 (Table 1)) of 96% and a Growth percentage (norharmane 2.5 μg/ml alone, imipenem-cilastatin sodium 0 (Table 2)) of 87%. For the same compound, the Growth percentage (norharmane 2.5 μg/ml alone, levofloxacin 0 (Table 3)) was 94%, the Growth percentage (norharmane 2.5 μg/ml alone, ofloxacin 0 (Table 4)) was 97% and the Growth percentage (norharmane 2.5 μg/ml alone, polymyxin B 0 (Table 1)) was 96%. For the same compound, the Growth percentage (norharmane 5 μg/ml alone, imipenem-cilastatin sodium 0 (Table 2)) was 87%, the Growth percentage (norharmane 5 μg/ml alone, levofloxacin 0 (Table 3)) was 92% and the Growth percentage (norharmane 5 μg/ml alone, ofloxacin 0 (Table 4)) was 95%. The Growth percentage (norharmane 5 μg/ml alone, polymyxin B 0 (Table 1)) was 95%, the Growth percentage (norharmane 10 μg/ml alone, imipenem-cilastatin sodium 0 (Table 2)) was 86% and the Growth percentage (norharmane 10 μg/ml alone, levofloxacin 0 (Table 3)) was 98%. For the same compound, the Growth percentage (norharmane 10 μg/ml alone, ofloxacin 0 (Table 4)) was 94%, the Growth percentage (norharmane 10 μg/ml alone, polymyxin B 0 (Table 1)) was 95% and the Growth percentage (norharmane 20 μg/ml alone, imipenem-cilastatin sodium 0 (Table 2)) was 85%. The Growth percentage (norharmane 20 μg/ml alone, levofloxacin 0 (Table 3)) was 95%, the Growth percentage (norharmane 20 μg/ml alone, ofloxacin 0 (Table 4)) was 88% and the Growth percentage (norharmane 20 μg/ml alone, polymyxin B 0 (Table 1)) was 95%. The Growth percentage (norharmane 40 μg/ml alone, imipenem-cilastatin sodium 0 (Table 2)) was 82%, the Growth percentage (norharmane 40 μg/ml alone, levofloxacin 0 (Table 3)) was 93% and the Growth percentage (norharmane 40 μg/ml alone, ofloxacin 0 (Table 4)) was 81%. For the same compound, the Growth percentage (norharmane 40 μg/ml alone, polymyxin B 0 (Table 1)) was 84% and the “MIC MICA: minimum inhibitory concentration of a drug used alone” value (norharmane used alone, end point 80% growth inhibition) was 40 µg/mL.

For `CC1COc2c(N3CCN(C)CC3)c(F)cc3c(=O)c(C(=O)O)cn1c23` (centres unmarked) [Ofloxacin, ofloxacin, reference compound], the “MIC MICB: minimum inhibitory concentration of the antibiotic when used alone” value [1] was 500 µg/mL, the Growth percentage (ofloxacin 7.8 μg/ml alone (norharmane 0)) was 83% and the Growth percentage (ofloxacin 15.6 μg/ml alone (norharmane 0)) was 79%. It also gave a Growth percentage (ofloxacin 31.25 μg/ml alone (norharmane 0)) of 73%, a Growth percentage (ofloxacin 62.5 μg/ml alone (norharmane 0)) of 67% and a Growth percentage (ofloxacin 125 μg/ml alone (norharmane 0)) of 54%. It also gave a Growth percentage (ofloxacin 250 μg/ml alone (norharmane 0)) of 36% and a Growth percentage (ofloxacin 500 μg/ml alone (norharmane 0)) of 6%.

In the case of polymyxin B [reference compound], the “MIC MICB: minimum inhibitory concentration of the antibiotic when used alone” value [1] is reported as 7.8 µg/mL, the Growth percentage (polymyxin B 0.12 μg/ml alone (norharmane 0)) is reported as 100% and the Growth percentage (polymyxin B 0.24 μg/ml alone (norharmane 0)) is reported as 98%. The Growth percentage (polymyxin B 0.49 μg/ml alone (norharmane 0)) was 98%, the Growth percentage (polymyxin B 0.98 μg/ml alone (norharmane 0)) was 90% and the Growth percentage (polymyxin B 1.95 μg/ml alone (norharmane 0)) was 52%. For the same compound, the Growth percentage (polymyxin B 3.9 μg/ml alone (norharmane 0)) was 29% and the Growth percentage (polymyxin B 7.8 μg/ml alone (norharmane 0)) was 5%.

For `C[C@H]1COc2c(N3CCN(C)CC3)c(F)cc3c(=O)c(C(=O)O)cn1c23` [Levofloxacin, levofloxacin, reference compound], the “MIC MICB: minimum inhibitory concentration of the antibiotic when used alone” value [1] was 62.5 µg/mL, the Growth percentage (levofloxacin 0.98 μg/ml alone (norharmane 0)) was 91% and the Growth percentage (levofloxacin 1.95 μg/ml alone (norharmane 0)) was 89%. For the same compound, the Growth percentage (levofloxacin 3.9 μg/ml alone (norharmane 0)) was 85%, the Growth percentage (levofloxacin 7.8 μg/ml alone (norharmane 0)) was 72% and the Growth percentage (levofloxacin 15.6 μg/ml alone (norharmane 0)) was 42%. The Growth percentage (levofloxacin 31.25 μg/ml alone (norharmane 0)) was 26% and the Growth percentage (levofloxacin 62.5 μg/ml alone (norharmane 0)) was 5%.
